In patent publication US20160257930A1, “NEURONAL STEM CELL DIFFERENTIATION” (priority 2013, published 2016):
“Also recorded” adds a separate entry of the source. Where two headings read alike, the source gives them in different places.

Assays:
Type in all cases: cell-based, human
[1] = test system: hPSC-derived neurons; assay: Fura-2 Ca2+ imaging; conditions: 15 s; for intracellular Ca2+ response to glutamate receptor agonists: 100 micromolar agonist (NMDA plus 10 micromolar glycine)
Protocol: A. Exemplar time-course of Fura 2 fluorescence recording of intracellular Ca^2+ concentration in a neuron derived from hPSCs differentiated using the protocol. At each arrow, the cell was exposed sequentially for 15 s to the following solutions: ECS with high potassium chloride concentration (50 mM, isoosmotically replacing NaCl) to evoke a cell depolarization; […] ECS with low sodium chloride concentration (15 mM final, isoosmotically replaced by sodium isethionate) with 300 microM GABA, ECS containing 100 micromolar NMDA plus 10 micromolar glycine; […] The ratiometric Ca^2+ sensitive dye Fura-2-AM (Molecular Probes, Eugene, Oreg., USA) was used for Ca^2+ imaging experiments. This dye was purchased as a dry powder in 50 μg aliquots. Before use, these aliquots were dissolved in 50 μl DMSO (Sigma) by vortex. They were then incubated at 37° C. for 1 h to ensure the dye was fully dissolved. 1 μl of the 1 mg/ml Fura-2-AM stock was added to 250 μl of normal cell growth media and mixed. Cells on glass coverslips were then added to the well and incubated for 30 min at 37° C. and 5% CO2 in a humidified tissue culture incubator. Both stocks and media containing the dye were stored out of direct light to prevent photo-bleaching of the dye. This incubation allowed for Fura-2-AM to be taken up by the cells, cleaved and turned into the active dye Fura-2. Fura-2-loaded cells were placed in a specialised perfusion chamber, designed to allow direct access of the microscope oil-immersion lens with the bottom of the coverslip, mounted upon an Olympus IX71 equipped with a Cairn monochromator-based fluorescence system (Cairn Instruments, Faversham, UK) and were continuously superfused with ECS. Imaging was performed at room temperature. Fura-2 was alternately excited using fluorescence light emitted from the monochromator at 340 and 380 nm. Images at 510 nm were acquired at 0.33 or 0.2 Hz by a slow-scan CCD camera (Kinetic Imaging Ltd, Nottingham, UK). Solutions, agonists and antagonists were locally applied to the cells using the gravity-driven rapid solution changer. Raw data, in the form of emission intensities at 510 nm, during alternate excitation at 340 or 380 nm, were recorded and stored. Following background subtraction, emission ratios (340/380) were calculated off-line using Microsoft Office Excel (Microsoft, Redmond, Wash., US). Where indicated, data were normalised to the first 10 frames to allow further analysis and for comparisons.

[2] = test system: iPS-derived neurons; assay: Whole-cell patch-clamp, current clamp: spontaneous action potentials and resting Vm
Excerpt: Ag/AgCl electrodes for patch-clamp were produced by leaving pure silver wire in bleach overnight. An Ag/AgCl pellet (Clark Electromedical Instruments) connected to the patch-clamp headstage was used as the bath (reference) electrode. Thin-walled, filamented, borosilicate glass tubes (World-Precision Instruments, UK) were pulled using a two-stage pipette puller (PP-830, Narishige, Japan) to give patch pipettes with a measured tip resistance of 3-6 MΩ when filled with the internal pipette solution. These pipettes were used to establish whole-cell configuration of the patch clamp technique.
Whole-cell patch-clamp was performed at room temperature. Plated down cells grown on glass coverslips were transferred into a perfusion chamber mounted on the stage of an inverted microscope equipped with phase-contrast optics mounted inside a Faraday cage on an anti-vibration air table (Wentworth Laboratories Ltd., Oxford, UK). Continuous perfusion of the cells with ECS was maintained by a gravity-fed system using a 50 mL disposable syringe as a reservoir. Continuous perfusion was maintained at a rate of approximately 2-4 ml per minute. A gravity-fed rapid solution changer (RSC, RSC-200, Bio-Logic, France) was used to apply various solutions directly to the cells when required allowing for solution changes as fast as 20 ms. Waste solution was removed via vacuum suction through a flame-pulled glass tube connected to a waste Buchner flask with Tygon tubing.
Current-clamp was used to apply current protocols, generated using Axon Laboratory's pClamp 9 software to the patched cell. These were recorded on-line for further analysis using the pClamp software. Offline data review and analysis was performed using Axon Laboratory's Clampfit 9, Microsoft Office Excel and Prism6. Spontaneous action potentials (sAPs): Cells were held in current clamp with zero current injection for recording of resting membrane potentials (Vm) and observation of any spontaneous action potentials. Recordings were made using the ‘Gap free’ protocol immediately after whole-cell access to reduce the effect of the pipette ICS dialysing with the actual cytosolic solution and thus influencing the resting membrane potential. Recordings were made for approx. 60 s for a mean calculation of Vm and to allow for spontaneous action potentials to be recorded.
Data from the current step protocols were analysed in Clampfit and exported to Excel for further processing. The average Vm during a 60 s ‘Gap Free’ recording in current clamp was taken as the resting membrane potential. In cells displaying spontaneous activity, an estimation of the baseline was made from the trace.

[3] = test system: neural progenitors; assay: Cyquant cell proliferation assay; conditions: increasing concentrations; assayed after 3, 6, 9 and 12 days of culture
Protocol: Cell proliferation in cultures treated with cell cycle and Notch pathway inhibitors were measured using the Cyquant™ Direct Cell Proliferation kit (Invitrogen). Briefly, 1×10^4 neural progenitors were plated per well in black, clear-bottomed 96 well plates (Nunclon) pre-treated with matrigel and cultured in ADF medium supplemented with B27 and small molecule inhibitors such as PD0332991 or DAPT (FIG. 2). Plates were processed according to the manufacturer's instructions and fluorescence Cyquant measurements were taken from triplicate cells on days 3, 6, 9 and 12 of culture using a FLUOstar Optima™ plate reader (BMG Labtech) using FITC (480 nm excitation/535 nm emission) filters in a bottom read fluorescence mode. Each measurement was calibrated by using blank suppression dye as a blank to remove background fluorescence.

[4] = test system: neural progenitor cultures; assay: Ki67 immunocytochemistry of neural progenitor cultures; conditions: for Ki67 immunoreactivity: 2 μM PD0332991 or 10 μM DAPT, 3 and 7 days after plating
Protocol: Cells grown on coverslips as described above were fixed with 4% paraformaldehyde at room temperature for 15 minutes. Cells were permeabilised (0.1% Triton X-100 in phosphate buffered saline) for 20 minutes at room temperature, then blocked in blocking solution (2% normal goat serum, 3% bovine serum albumin, 0.1% Triton X-100 in phosphate buffered saline for one hour. Cells were incubated with primary antibodies (rabbit anti-FOXG1, mouse anti-Sox2 (Abcam), mouse anti-ZOI (Abcam), mouse anti-Nestin (Abcam) anti-KI67 (Sigma) and anti-βIII-Tubulin (Sigma) diluted in the same buffer overnight at 4° C. Coverslips were then washed in 0.1% Triton X-100 in phosphate buffered saline 3 times for 5 minutes each and incubated with secondary antibodies (Goat anti-rabbit alexa 594 or Goat anti-mouse 488 secondary antibodies (1:400, Sigma), as appropriate diluted in blocking buffer. Coverslips were washed as above, mounted onto slides using Vectashield with DAPI and imaged using a Olympus BX61 fluorescence microscope.

[5] = 1.8 mM Ca2+ or 300 μM GABA vs control medium (0.6 mM Ca2+), weeks 1 and 2

Cc1o[nH]c(=O)c1CC(N)C(=O)O (stereo not drawn) [AMPA]
intracellular Ca2+ response to glutamate receptor agonists [1]: all cells responded similarly

[Ca+2].[Cl-].[Cl-] [Ca^2+, Calcium Chloride]
mean resting Vm [2]: significant hyperpolarisation of mean resting Vm; also recorded: hyperpolarized the Vm
proportion of cells generating spontaneous activity [2]: enhancement in the proportion of cells generating spontaneous activity; also recorded: increase in spontaneous activity; also recorded: partially mimic the effects of ACM

C[C@H](NC(=O)Cc1cc(F)cc(F)c1)C(=O)N[C@H](C(=O)OC(C)(C)C)c1ccccc1 [DAPT, N-[N-(3,5-Difluorophenacetyl)-L-alanyl]-S-phenylglycine t-butyl ester]
cell proliferation (relative Cyquant fluorescence, proportional to cell number) [3]: reduces cell proliferation; also recorded: inhibit neural progenitor proliferation
Ki67 immunoreactivity [4]: more progressive loss of Ki67 immunostaining
synchronisation of cell cycle exit and differentiation ([4]; DAPT treatment alone): insufficient to synchronise cell cycle exit and differentiation

NCCCC(=O)O [GABA, γ-aminobutyric acid]
rescue of Vm [2]: evoked a hyperpolarisation
mean resting Vm [2, 5]: as effective as the increased extracellular Ca^2+
proportion of cells generating spontaneous activity [2, 5]: as effective as the increased extracellular Ca^2+; also recorded: partially mimic the effects of ACM
intracellular Ca2+ response to GABA in high chloride ([1]; 300 microM GABA in ECS): all neurons responded to GABA in high chloride
intracellular Ca2+ response to GABA in low chloride ([1]; 300 microM GABA, low chloride ECS): few cells responded to GABA in low chloride

CN[C@H](CC(=O)O)C(=O)O [NDMA]
intracellular Ca2+ response to glutamate receptor agonists [1]: all cells responded similarly

CC(=O)c1c(C)c2cnc(Nc3ccc(N4CCNCC4)cn3)nc2n(C2CCCC2)c1=O [PD0332991]
cell proliferation (relative Cyquant fluorescence, proportional to cell number) [3]: concentration-dependent growth arrest; also recorded: inhibit neural progenitor proliferation
Ki67 immunoreactivity [4]: complete loss of Ki67 immunopositive cells

SNX-482
ACM-evoked hyperpolarization (mean Vm) [2]: abolished
